Where a name gives a salt, the structure may show the parent alone.
What was measured:
human CDK4/cyclin D3 = target: T1, human CDK4/cyclin D3 (Homo sapiens, UniProt P11802); experiment: Inhibition of CDK4/cyclin D retinoblastoma kinase activity (Ki; % inhibition); assay type: biochemical; conditions: for Ki: apparent Ki, CDK4/cyclin D3, Rb substrate
T1 construct: made in house; host or cells: insect cells co-infected with baculovirus vectors
Outline: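 Radiometric filter-binding read-out: Rb residues 386-928 phosphorylated by 5 nM CDK4/cyclin D3(1-264) from baculovirus-infected insect cells, 25 μM ATP, HEPES pH 7.4, 30 °C. Run 20 min, or 60 min for tight-binding inhibitors. Screening at 30 nM theoretical compound; apparent Ki by competitive-inhibition fitting.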

[1] = target: T2, phosphorylated LCK kinase (Homo sapiens, UniProt P06239, C224D/P223M); experiment: Inhibition of phosphorylated LCK tyrosine kinase activity (coupled spectrophotometric assay); assay type: biochemical; conditions: read-out: P-LCK % Inhibition at 1 μM
T2 construct: starting from amino acid 223 to the end of the protein at amino acid 509; made in house; host or cells: insect cells
T2 sequence (P06239 223-509 P223M/C224D): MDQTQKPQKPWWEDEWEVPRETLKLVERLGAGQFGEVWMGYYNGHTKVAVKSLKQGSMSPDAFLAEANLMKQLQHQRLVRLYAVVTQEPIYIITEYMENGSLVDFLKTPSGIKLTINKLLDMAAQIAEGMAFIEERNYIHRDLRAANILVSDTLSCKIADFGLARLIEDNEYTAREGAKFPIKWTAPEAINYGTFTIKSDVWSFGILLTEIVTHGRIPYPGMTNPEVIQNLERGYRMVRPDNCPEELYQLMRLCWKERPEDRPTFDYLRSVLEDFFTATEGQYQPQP
Method: (§1) Cloning, expression and purification of the cytosolic domain of FGFR1 tyrosine kinase (amino acids 456-766) containing three amino acid substitutions (L457V, C488A, and C584S) were conducted as previously described (Mohammadi, M., Schiessinger, J., & Hubbard, S. R. Cell, 86, (1996) 577-587). This domain was expressed in Sf9 insect cells using a baculovirus expression vector, and protein was purified using conventional techniques. The LCK tyrosine kinase was expressed in insect cells as an N-terminal deletion starting from amino acid 223 to the end of the protein at amino acid 509. The N-terminus of the protein also had two amino acid substitutions, P223M and C224D. Kinases were purified using conventional chromatographic methods.
(§2) Tyrosine kinase activity was measured using a coupled, continuous spectrophotometric assay, in which production of phosphorylated poly(Glu,Tyr; 4:1) substrate and ADP is coupled to the pyruvate kinase-catalyzed transfer of a phosphate from phosphoenolpyruvate to ADP, with generation of pyruvate and regeneration of ATP. Pyruvate production is in turn coupled to the lactate dehydrogenase-catalyzed reduction of pyruvate to form lactate, with concomitant conversion of NADH to NAD^+. Loss of NADH is monitored by measuring absorbance at 340 nm (see e.g., Technikova-Dobrova et al., “Spectrophotometric Determination of Functional Characteristics of Protein Kinases with Coupled Enzymatic Assay,” FEBS Letters, 292 (1991), pp. 69-72). Enzyme activity was measured in the presence of 200 mM HEPES (pH 7.5), 2 mM phosphoenolpyruvate, 0.3 mM NADH, 20 mM MgCl2, 100 μM ATP, 5 mM DTT, 5.1 or 25 mM poly (Glu,Tyr) 4:1 for P-FGF or P-LCK assays, respectively, and 15 units/mL each of pyruvate kinase and lactate dehydrogenase. Phosphorylated FGF receptor kinase was present at 100 nM and phosphorylated LCK kinase was present at 50 nM. Assays were performed under initial rate conditions at 37° C., and rates were corrected for any background rate measured in the absence of enzyme. Percent inhibition was calculated relative to control enzyme assayed in the presence of 2% (v/v) DMSO.

[2] = target: T3, Phosphorylated FGF receptor kinase (FGFR1 cytosolic domain) (Homo sapiens, UniProt P11362, C488A/C584S/L457V); experiment: Inhibition of phosphorylated FGF receptor tyrosine kinase activity (coupled spectrophotometric assay); assay type: biochemical; conditions: read-out: P-FGF % Inhibition at 1 μM
T3 construct: FGFR1 tyrosine kinase (amino acids 456-766); made in house; host or cells: Sf9 insect cells (baculovirus)
T3 sequence (P11362 456-766 L457V/C488A/C584S): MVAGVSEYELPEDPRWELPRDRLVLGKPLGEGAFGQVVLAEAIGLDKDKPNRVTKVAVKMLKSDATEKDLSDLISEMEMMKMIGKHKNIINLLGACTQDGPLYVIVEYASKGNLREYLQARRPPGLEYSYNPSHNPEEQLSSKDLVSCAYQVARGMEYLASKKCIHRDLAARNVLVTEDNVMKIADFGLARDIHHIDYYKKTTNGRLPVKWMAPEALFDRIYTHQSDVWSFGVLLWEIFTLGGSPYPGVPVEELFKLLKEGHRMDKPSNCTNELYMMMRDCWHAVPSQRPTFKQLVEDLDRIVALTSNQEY
Method: as §1, §2

HCT-116 cell line = experiment: Inhibition of cell growth, MTT tetrazolium salt assay; assay type: cell-based; conditions: for IC50: Homo sapiens, HCT-116, 120 h, MTT, three to five days
Outline: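 Cells in McCoy's 5A medium were given 4 h before compound addition in 0.5% (v/v) DMSO, then incubated 3–5 days at 37 °C, 5% CO2. After 4 h with 0.2 mg/mL MTT, DMSO-solubilized formazan was read at 540 nm; 50% and 90% growth-inhibitory concentrations came from semi-log plots against vehicle controls.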

CDK2/cyclin A = target: T4, CDK2/cyclin A (Homo sapiens, UniProt P24941); experiment: Inhibition of CDK2/cyclin A retinoblastoma kinase activity (Ki; % inhibition); assay type: biochemical; conditions: for Ki: apparent Ki, CDK2/cyclin A, Rb substrate
T4 construct: made in house; host or cells: CDK2: insect cells (baculovirus); cyclin A: E. coli
Outline: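 Apparent Ki values came from fitting concentration-dependent activity data to competitive (or competitive tight-binding) models, and % inhibition from single 30 nM screens of library compounds. Activity was measured as ³²P/³³P incorporation from 25 μM ATP into an Rb substrate by 10 or 19 nM CDK2/delta cyclin A at 30 °C over 60–75 min, pH 7.4.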

T1 sequence (P11802 whole entry): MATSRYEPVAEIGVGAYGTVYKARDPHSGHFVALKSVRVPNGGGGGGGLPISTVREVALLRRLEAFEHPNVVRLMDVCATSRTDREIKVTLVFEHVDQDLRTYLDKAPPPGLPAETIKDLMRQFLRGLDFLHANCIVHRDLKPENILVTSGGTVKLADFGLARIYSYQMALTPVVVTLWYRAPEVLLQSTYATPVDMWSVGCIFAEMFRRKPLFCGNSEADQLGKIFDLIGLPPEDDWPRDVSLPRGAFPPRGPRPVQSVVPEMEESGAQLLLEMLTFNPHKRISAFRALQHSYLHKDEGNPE
T1 sequence (P30281 1-264 partner limits assumed): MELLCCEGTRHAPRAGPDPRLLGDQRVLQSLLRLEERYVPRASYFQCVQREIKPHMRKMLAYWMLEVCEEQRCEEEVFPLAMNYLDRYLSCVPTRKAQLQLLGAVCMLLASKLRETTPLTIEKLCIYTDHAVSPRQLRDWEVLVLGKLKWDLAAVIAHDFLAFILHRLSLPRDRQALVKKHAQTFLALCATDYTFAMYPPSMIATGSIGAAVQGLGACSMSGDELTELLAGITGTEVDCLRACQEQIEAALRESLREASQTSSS

Nc1nc(Nc2ccc(C(=O)NCCNc3ccccc3)cc2)sc1C(=O)c1c(F)cccc1F [Example A2, 4-[4-Amino-5-(2,6-difluoro-benzoyl)-thiazol-2-ylamino]-N-(2-phenylamino-ethyl)-benzamide]
Ki (human CDK4/cyclin D3): 0.008 µM | inhibition at 1 µM [1]: 4% | inhibition at 1 µM [2]: 8% | IC50 (HCT-116 cell line): 0.14 µM | Ki (CDK2/cyclin A): 0.0032 µM

CCN1CCCC1CNC(=O)c1ccc(Nc2nc(N)c(C(=O)c3c(F)cccc3F)s2)cc1 (stereo not shown) [Example A11, 4-[4-Amino-5-(2,6-difluoro-benzoyl)-2-ylamino]-N-(1-ethyl-pyrrolidin-2RS-ylmethyl)-benzamide]
Ki (human CDK4/cyclin D3): 0.014 µM | inhibition at 1 µM [1]: 6% | IC50 (HCT-116 cell line): 0.17 µM | Ki (CDK2/cyclin A): 0.082 µM

Nc1nc(Nc2ccc(C(=O)Nc3ccc4c(c3)OCCO4)cc2)sc1C(=O)c1c(F)cccc1F [Example A17, 4-[4-Amino-5-(2,6-difluoro-benzoyl)-thiazol-2-ylamino]-N-(2,3-dihydro-benzo[1,4]dioxin-6-yl)-benzamide]
Ki (human CDK4/cyclin D3): 0.026 µM | inhibition at 1 µM [1]: 0% | inhibition at 1 µM [2]: 0% | IC50 (HCT-116 cell line): 0.1 µM | Ki (CDK2/cyclin A): 0.051 µM

Nc1nc(Nc2ccc(C(=O)Nc3ccccc3)cc2)sc1C(=O)c1c(F)cccc1F [Example A9, 4-[4-Amino-5-(2,6-difluoro-benzoyl)-thiazol-2-ylamino]-N-phenyl-benzamide]
Ki (human CDK4/cyclin D3): 0.012 µM | inhibition at 1 µM [1]: 5% | inhibition at 1 µM [2]: 5% | IC50 (HCT-116 cell line): 0.14 µM | Ki (CDK2/cyclin A): 0.027 µM

CC(CCCC(C)(C)O)NC(=O)c1ccc(Nc2nc(N)c(C(=O)c3c(F)cccc3F)s2)cc1 (stereo not shown) [Example A5, 4-[4-Amino-5-(2,6-difluoro-benzoyl)-thiazol-2-ylamino]-N-(6-hydroxy-6-methyl-hept-2-yl)-benzamide]
Ki (human CDK4/cyclin D3): 0.066 µM | inhibition at 1 µM [1]: 3% | inhibition at 1 µM [2]: 5% | IC50 (HCT-116 cell line): 1.2 µM | Ki (CDK2/cyclin A): 0.072 µM

CN(C)CCN(C)C(=O)c1ccc(Nc2nc(N)c(C(=O)c3c(F)cccc3F)s2)cc1 [Example A3, 4-[4-Amino-5-(2,6-difluoro-benzoyl)-thiazol-2-ylamino]-N-(2-dimethylamino-ethyl)-N-methyl-benzamide]
Ki (human CDK4/cyclin D3): 0.021 µM | inhibition at 1 µM [1]: 5% | inhibition at 1 µM [2]: 7% | IC50 (HCT-116 cell line): 0.75 µM | Ki (CDK2/cyclin A): 0.17 µM

Cn1cnc(CNC(=O)c2ccc(Nc3nc(N)c(C(=O)c4c(F)cccc4F)s3)cc2)c1 [Example A63, 4-[4-Amino-5-(2,6-difluoro-benzoyl)-thiazol-2-ylamino]-N-(1-methyl-imidazol-4-yl-methyl)-benzamide Trifluoroacetic Acid Salt]
Ki (human CDK4/cyclin D3): 0.018 µM | IC50 (HCT-116 cell line): 1.6 µM | Ki (CDK2/cyclin A): 0.0153 µM

CC(CO)NC(=O)c1ccc(Nc2nc(N)c(C(=O)c3c(F)cccc3F)s2)cc1 (stereo not shown) [Example G175]
CDK4 % Inhibition at 0.03 μM (human CDK4/cyclin D3; at 0.03 μM): 31% | HCT-116 % Inhibition at 0.1 μM (HCT-116 cell line; HCT-116, at 0.1 μM, 0.1 µM): 11% | HCT-116 % Inhibition at 0.25 μM (HCT-116 cell line; HCT-116, at 0.25 μM, 0.25 µM): 47% | CDK2 % Inhibition at 0.03 μM (CDK2/cyclin A; at 0.03 μM): 15%

Nc1nc(Nc2ccc(C(=O)Nc3ccccc3N3CCOCC3)cc2)sc1C(=O)c1c(F)cccc1F [Example G146]
CDK4 % Inhibition at 0.03 μM (human CDK4/cyclin D3; at 0.03 μM): 7% | HCT-116 % Inhibition at 0.1 μM (HCT-116 cell line; HCT-116, at 0.1 μM): 1% | HCT-116 % Inhibition at 0.25 μM (HCT-116 cell line; HCT-116, at 0.25 μM): 52% | CDK2 % Inhibition at 0.03 μM (CDK2/cyclin A; at 0.03 μM): 6%

COc1ccccc1CNC(=O)c1ccc(Nc2nc(N)c(C(=O)c3c(F)cccc3F)s2)cc1 [Example G170]
CDK4 % Inhibition at 0.03 μM (human CDK4/cyclin D3; at 0.03 μM): 32% | HCT-116 % Inhibition at 0.1 μM (HCT-116 cell line; HCT-116, at 0.1 μM): 44% | HCT-116 % Inhibition at 0.25 μM (HCT-116 cell line; HCT-116, at 0.25 μM): 78% | CDK2 % Inhibition at 0.03 μM (CDK2/cyclin A; at 0.03 μM): 26%

CC1(C)CCCC(C)(C)N1CCNC(=O)c1ccc(Nc2nc(N)c(C(=O)c3c(F)cccc3F)s2)cc1 [Example A53, 4-[4-Amino-5-(2,6-difluoro-benzoyl)-thiazol-2-ylamino]-N-[2-(2,2,6,6-tetramethyl-piperidin-1-yl)-ethyl]-benzamide]
Ki (human CDK4/cyclin D3): 0.004 µM | IC50 (HCT-116 cell line): 0.15 µM | Ki (CDK2/cyclin A): 0.12 µM

COCCN(CCOC)C(=O)c1ccc(Nc2nc(N)c(C(=O)c3c(F)cccc3F)s2)cc1 [Example G36]
CDK4 % Inhibition at 0.03 μM (human CDK4/cyclin D3; at 0.03 μM): 6% | HCT-116 % Inhibition at 0.25 μM (HCT-116 cell line; HCT-116, at 0.25 μM): 62% | CDK2 % Inhibition at 0.03 μM (CDK2/cyclin A; at 0.03 μM): −4%

CCN(CC)CCN(CC)C(=O)c1ccc(Nc2nc(N)c(C(=O)c3c(F)cccc3F)s2)cc1 [Example G35]
CDK4 % Inhibition at 0.03 μM (human CDK4/cyclin D3; at 0.03 μM): 8% | HCT-116 % Inhibition at 0.25 μM (HCT-116 cell line; HCT-116, at 0.25 μM): 53% | CDK2 % Inhibition at 0.03 μM (CDK2/cyclin A; at 0.03 μM): 5%

Nc1nc(Nc2ccc(C(=O)NCCc3ccccc3Cl)cc2)sc1C(=O)c1c(F)cccc1F [Example G177]
CDK4 % Inhibition at 0.03 μM (human CDK4/cyclin D3; at 0.03 μM): 23% | HCT-116 % Inhibition at 0.1 μM (HCT-116 cell line; HCT-116, at 0.1 μM): 24% | HCT-116 % Inhibition at 0.25 μM (HCT-116 cell line; HCT-116, at 0.25 μM): 45% | CDK2 % Inhibition at 0.03 μM (CDK2/cyclin A; at 0.03 μM): 10%

CCCN(CCC)C(=O)c1ccc(Nc2nc(N)c(C(=O)c3c(F)cccc3F)s2)cc1 [Example G248]
CDK4 % Inhibition at 0.03 μM (human CDK4/cyclin D3; 0.03 μM compound): 17% | HCT-116 % Inhibition at 0.1 μM (HCT-116 cell line; HCT-116 cells, 0.1 μM compound): 13% | HCT-116 % Inhibition at 0.25 μM (HCT-116 cell line; HCT-116 cells, 0.25 μM compound): 55% | CDK2 % Inhibition at 0.03 μM (CDK2/cyclin A; 0.03 μM compound): 8%

Nc1nc(Nc2ccc(C(=O)N[C@H]3CCc4ccccc43)cc2)sc1C(=O)c1c(F)cccc1F [Example G184]
CDK4 % Inhibition at 0.03 μM (human CDK4/cyclin D3; at 0.03 μM): 36% | HCT-116 % Inhibition at 0.1 μM (HCT-116 cell line; HCT-116, at 0.1 μM): 17% | HCT-116 % Inhibition at 0.25 μM (HCT-116 cell line; HCT-116, at 0.25 μM): 58% | CDK2 % Inhibition at 0.03 μM (CDK2/cyclin A; at 0.03 μM): 34%

Nc1nc(Nc2ccc(C(=O)Nc3cccc4cnccc34)cc2)sc1C(=O)c1c(F)cccc1F [Example G83]
CDK4 % Inhibition at 0.03 μM (human CDK4/cyclin D3; at 0.03 μM): 7% | HCT-116 % Inhibition at 0.25 μM (HCT-116 cell line; HCT-116, at 0.25 μM): 64% | CDK2 % Inhibition at 0.03 μM (CDK2/cyclin A; at 0.03 μM): 16%

CC(NC(=O)c1ccc(Nc2nc(N)c(C(=O)c3c(F)cccc3F)s2)cc1)C1CCCCC1 (stereo not shown) [Example G388]
CDK4 % Inhibition at 0.03 μM (human CDK4/cyclin D3; 0.03 μM compound, 0.03 µM): 8% | HCT-116 % Inhibition at 0.1 μM (HCT-116 cell line; HCT-116 cells, 0.1 μM compound, 0.1 µM): 9% | HCT-116 % Inhibition at 0.25 μM (HCT-116 cell line; HCT-116 cells, 0.25 μM compound, 0.25 µM): 45% | CDK2 % Inhibition at 0.03 μM (CDK2/cyclin A; 0.03 μM compound, 0.03 µM): 3%

CC(=O)NCCNC(=O)c1ccc(Nc2nc(N)c(C(=O)c3c(F)cccc3F)s2)cc1 [Example G142]
CDK4 % Inhibition at 0.03 μM (human CDK4/cyclin D3; at 0.03 μM): 20% | HCT-116 % Inhibition at 0.1 μM (HCT-116 cell line; HCT-116, at 0.1 μM): 0% | HCT-116 % Inhibition at 0.25 μM (HCT-116 cell line; HCT-116, at 0.25 μM): 46% | CDK2 % Inhibition at 0.03 μM (CDK2/cyclin A; at 0.03 μM): 11%
